From patent EP0290169A2, “Diamineplatinum complexes with phosphonocarboxylate and substituted phosphonocarboxylate ligands as antitumor agents” (ENGELHARD CORPORATION, priority 1987, dated 1988)

Tests used:
[1] = tested on: L1210 leukemia; assay: L1210 screening (L1210 leukemia tumor model), increase in life span; format: in vivo, Female CDF1 mice; details: for Surv.: survivors
Description: Female CDF1 mice (16-22 g) are injected with a suspension of 1 x 10^6 tumor cells in 0.5 mL of 0.15 M saline on day zero. On day one, the mice receive the test compound in 0.5 mL of the chosen medium (usually water). Six mice were used for each test dose, with six doses normally being run. Normal controls (six mice) receive tumor on day zero and 0.5 mL of the test medium on day one. Positive controls (six mice) receive tumor on day zero and 8 mg/kg cisplatin in 0.5 mL of 0.15 M saline on day one. All compound doses are adjusted for the actual average weight of the mice involved. Testing is terminated at three times the normal control mean life span. The percent increase in lifespan (ILS) is calculated as follows: %ILS = [(mean life span (test)/mean life span(control)-I]x100 A 25% ILS or greater indicates activity. The maximum possible ILS is 200%. The positive control must have an ILS of S 25% for the test to be considered valid.
The tumor line is maintained by transfer of 5 x 10^4- cells in 0.1 mL saline every seven days. DBA/2 (18-22 g) mice are employed for tumor transfers

[2] = tested on: Sarcoma 180 ascites; assay: S180a screening (Sarcoma 180 ascites tumor model), increase in life span; format: in vivo, CFW mice; details: for Surv.: survivors on day of evaluation
Description: CFW mice, averaging 20 g, are innoculated on day zero with 0.2 mL of a freshly prepared saline suspension (0.15 M NaCI) containing 1 × 10^7 tumor cells/mL, or a total of 2 x 10^6 cells. On day I, the mice are injected with the test compound in the selected medium (usually water). Six mice are used per test dose, with six doses normally being run.
Also, on day one, two types of controls (6 mice/set are employed: (1) Normal (1 set): 0.5 mL of the solvent medium used for the test compound, and (2) Positive control (1 set): cis-[Pt(NH3)2Cl2] in saline at 8 mg/kg.
The effectiveness of a compound is measured in terms of the increase in life span (ILS) of the test animals relative to the controls calculated from the day of tumor inoculation (day zero). The day of evaluation is arbitrarily taken as that day corresponding to twice the mean life-span of the normal controls. This sets a practical upper limit of 100% on the ILS attainable. For calculation purposes, survivors on the day of evaluation are considered to have died on that day. The % ILS is formulated as: [formula]
ILS values above 50% represent activity. The positive controls must have an ILS of ≧ 50% for the test to be valid.

[3] = dose 5.00 mg/kg on day 1, vehicle water
[4] = dose 10.00 mg/kg on day 1, vehicle water
[5] = dose 20.00 mg/kg on day 1, vehicle water
[6] = dose 40.00 mg/kg on day 1, vehicle water
[7] = dose 80.00 mg/kg on day 1, vehicle water
[8] = dose 160.00 mg/kg on day 1, vehicle water
[9] = dose 320.00 mg/kg on day 1, vehicle water
[10] = dose 5.00 mg/kg on day 1, vehicle water, pH7
[11] = dose 10.00 mg/kg on day 1, vehicle water, pH7
[12] = dose 20.00 mg/kg on day 1, vehicle water, pH7
[13] = dose 40.00 mg/kg on day 1, vehicle water, pH7
[14] = dose 80.00 mg/kg on day 1, vehicle water, pH7
[15] = dose 160.00 mg/kg on day 1, vehicle water, pH7

| Structure (SMILES) | %ILS [1, 4] [%] | Surv. [1, 4] | %ILS [1, 5] [%] | Surv. [1, 5] | %ILS [1, 6] [%] | Surv. [1, 6] | %ILS [1, 7] [%] | Surv. [1, 7] | %ILS [1, 8] [%] | Surv. [1, 8] | %ILS [2, 6] [%] | Surv. [2, 6] | %ILS [2, 7] [%] | Surv. [2, 7] | %ILS [2, 8] [%] | Surv. [2, 8] | %ILS [2, 5] [%] | Surv. [2, 5] | other results |
| --- | --- | --- | --- | --- | --- | --- | --- | --- | --- | --- | --- | --- | --- | --- | --- | --- | --- | --- | --- |
| NC1CCCCC1N.O=C1[O][Pt][O]P(=O)([O-])C1c1ccccc1.[Na+] (mixture of isomers) [Ex 6, Na[Pt(trans-R,R-dach)(2-phosphonophenytacetate)]] | 6 | 0/ 6 | 26 | 0/ 6 | 47 | 0/ 6 | 53 | 0/ 6 | 76 | 0/ 6 | 24 | 0/ 6 | 88 | 2/ 6 | 102 | 5/ 6 |  |  | %ILS [1, 3]: 2%; Surv. [1, 3]: 0/ 6 |
| CC(N)CN.CCC1C(=O)[O][Pt][O]P1(=O)[O-].[Na+] (mixture of isomers) [Ex 8, Na[Pt(pn)(2-phosphonobutyrate)]] | -6 | 0/ 6 | -9 | 0/ 6 | 0 | 0/ 6 | -2 | 0/ 6 | 16 | 0/ 6 | 46 | 0/ 6 | 38 | 0/ 6 | 95 | 4/ 6 | 4 | 0/ 6 | %ILS [1, 9]: -44%; Surv. [1, 9]: 0/ 6; %ILS [2, 3]: 4%; Surv. [2, 3]: 0/ 6; %ILS [2, 4]: 19%; Surv. [2, 4]: 0/ 6 |
| CC(N)CN.CC1C(=O)[O][Pt][O]P1(=O)[O-].[Na+] (mixture of isomers) [Ex 12, Na[Pt(pn)(2-phosphonopropionate)]] |  |  |  |  |  |  |  |  |  |  | 24 | 0/ 6 | 40 | 0/ 6 | 53 | 1/ 6 | 20 | 0/ 6 |  |
| N.N.O=C1[O][Pt][O]P(=O)([O-])C1c1ccccc1.[Na+] (racemic) [Ex 7, Na[cis-Pt(NHs)2(2-phosphonophenylacetate)]] |  |  |  |  |  |  |  |  |  |  | 26 | 0/ 6 | 71 | 2/ 6 | 28 | 0/ 6 | 14 | 0/ 6 |  |
| CC(N)CN.O=C1CP(=O)(O)[O][Pt][O]1 (racemic) [Ex 10, H[Pt(pn)(phasphonoacetate)]] | 2 | 0/ 6 | -13 | 0/ 6 | -13 | 0/ 6 | -34 | 0/ 6 | -52 | 0/ 6 | 9 | 1/ 6 | -71 | 0/ 6 | -78 | 0/ 6 | 77 | 3/ 6 | %ILS [1, 3]: -5%; Surv. [1, 3]: 0/ 6; %ILS [2, 9]: -79%; Surv. [2, 9]: 0/ 6 |
| CCC1C(=O)[O][Pt][O]P1(=O)[O-].N.N.[Na+] (racemic) [Ex 14, Na[cis-Pt(NH3)2(2-phosphonobutyrate)]] | -10 | 0/ 6 | -8 | 0/ 6 | -15 | 0/ 6 | -5 | 0/ 6 | -67 | 0/ 6 |  |  |  |  |  |  |  |  | %ILS [1, 9]: -80%; Surv. [1, 9]: 0/ 6 |
| CC1C(=O)[O][Pt][O]P1(=O)[O-].N.N.[Na+] (racemic) [Ex 15, Na[cis-Pt(NH3)2(2-phosphonopropionate)]] |  |  |  |  |  |  |  |  |  |  | -7 | 0/ 6 | -80 | 0/ 6 | -80 | 0/ 6 | 1 | 0/ 6 | %ILS [2, 4]: 16%; Surv. [2, 4]: 1/ 6 |
| CCCC1C(=O)[O][Pt][O]P1(=O)[O-].N.N.[Na+] (racemic) [Ex 19, Na[cis-Pt(NH3)2(2-phosphonovalerate)]] |  |  |  |  |  |  |  |  |  |  | -85 | 0/ 6 | -95 | 0/ 6 | -95 | 0/ 6 | -74 | 0/ 6 |  |
| CC(C)N.CC(C)N.O=C1CP(=O)([O-])[O][Pt][O]1.[Na+] [Ex 9, Na[cis-Pt(i-PrNH2)2(phosphonoacetate)]] |  |  |  |  |  |  |  |  |  |  | -2 | 0/ 6 | -4 | 0/ 6 | 15 | 0/ 6 | 1 | 0/ 6 | %ILS [2, 9]: 17%; Surv. [2, 9]: 0/ 6 |
| NCCN.O=C1[O][Pt][O]P1(=O)O [Ex 13, H[Pt(en)(phosphonoformate)]] |  |  |  |  |  |  |  |  |  |  |  |  |  |  |  |  |  |  | %ILS [2, 10]: 9%; Surv. [2, 10]: 0/ 6; %ILS [2, 11]: 31%; Surv. [2, 11]: 1/ 6; %ILS [2, 12]: 63%; Surv. [2, 12]: 1/ 6; %ILS [2, 13]: 93%; Surv. [2, 13]: 5/ 6; %ILS [2, 14]: 58%; Surv. [2, 14]: 2/ 6; %ILS [2, 15]: -74%; Surv. [2, 15]: 0/ 6 |
| NCCN.O=C1CP(=O)(O)[O][Pt][O]1 [Ex 16, H[Pt(en)(phosphonoacetate)]] |  |  |  |  |  |  |  |  |  |  | 64 | 3/ 6 | 84 | 4/ 6 | 85 | 3/ 6 | 29 | 1/ 6 | %ILS [2, 3]: -2%; %ILS [2, 10]: -3%; Surv. [2, 10]: 0/ 6; Surv. [2, 3]: 0/ 6; %ILS [2, 4]: 3%; %ILS [2, 11]: 2%; Surv. [2, 11]: 0/ 6; Surv. [2, 4]: 0/ 6; %ILS [2, 12]: 14%; Surv. [2, 12]: 0/ 6; %ILS [2, 13]: 72%; Surv. [2, 13]: 2/ 6; %ILS [2, 14]: 93%; Surv. [2, 14]: 4/ 6; %ILS [2, 15]: -32%; Surv. [2, 15]: 1/ 6 |
| N.N.O=C1CP(=O)([O-])[O][Pt][O]1.[Na+] [Ex 21, Na(cis-Pt(NH3)2(phosphonoacetate)]] | -10 | 0/ 6 | -5 | 0/ 6 | 13 | 0/ 6 | 12 | 0/ 6 | 10 | 0/ 6 |  |  |  |  |  |  |  |  | %ILS [1, 9]: -80%; Surv. [1, 9]: 0/ 6 |
